In patent publication US12365696B2, “Small-molecule focal adhesion kinase (FAK) inhibitors” (DANA-FARBER CANCER INSTITUTE, INC., priority 2019, dated 2025):

Experiments:
Assay in all cases: KINOMEscan
Format in all cases: binding
[1] = target: ABL1(E255K)-phosphorylated (Homo sapiens (Human), UniProt P00519, E255K); conditions: 10000 nM, read-out: Percent Control
[2] = target: ABL1(H396P)-phosphorylated (Homo sapiens (Human), UniProt P00519, H396P); conditions: 10000 nM, read-out: Percent Control
BRAF = BRAF (Homo sapiens (Human), UniProt P15056); conditions: 10000 nM, read-out: Percent Control
BRSK1 = BRSK1 (Homo sapiens (Human), UniProt Q8TDC3); conditions: BRSK1, 10000 nM; read-out: Percent Control
CHEK2 = CHEK2 (Homo sapiens (Human), UniProt O96017); conditions: CHEK2, 10000 nM; read-out: Percent Control
CIT = CIT (Homo sapiens (Human), UniProt O14578); conditions: 10000 nM, read-out: Percent Control
DAPK2 = DAPK2 (Homo sapiens (Human), UniProt Q9UIK4); conditions: DAPK2, 10000 nM; read-out: Percent Control
ERK8 = ERK8 (Homo sapiens (Human), UniProt Q8TD08); conditions: ERK8, 10000 nM; read-out: Percent Control
FGFR3 = FGFR3 (Homo sapiens (Human), UniProt P22607); conditions: FGFR3, 10000 nM; read-out: Percent Control
FYN = FYN (Homo sapiens (Human), UniProt P06241); conditions: 10000 nM, read-out: Percent Control
[3] = target: JAK1(JH2domain-pseudokinase) (Homo sapiens (Human), UniProt P23458); conditions: 10000 nM, read-out: Percent Control
JNK3 = JNK3 (Homo sapiens (Human), UniProt P53779); conditions: JNK3, 10000 nM; read-out: Percent Control
LZK = LZK (Homo sapiens (Human), UniProt O43283); conditions: 10000 nM, read-out: Percent Control
MAP3K15 = MAP3K15 (Homo sapiens (Human), UniProt Q6ZN16); conditions: MAP3K15, 10000 nM; read-out: Percent Control
MAP3K3 = MAP3K3 (Homo sapiens (Human), UniProt Q99759); conditions: MAP3K3, 10000 nM; read-out: Percent Control
MAP4K3 = MAP4K3 (Homo sapiens (Human), UniProt Q8IVH8); conditions: MAP4K3, 10000 nM; read-out: Percent Control
MAST1 = MAST1 (Homo sapiens (Human), UniProt Q9Y2H9); conditions: MAST1, 10000 nM; read-out: Percent Control
NEK7 = NEK7 (Homo sapiens (Human), UniProt Q8TDX7); conditions: NEK7, 10000 nM; read-out: Percent Control
NIK = NIK (Homo sapiens (Human), UniProt Q99558); conditions: 10000 nM, read-out: Percent Control
p38-gamma = p38-gamma (Homo sapiens (Human), UniProt P53778); conditions: 10000 nM, read-out: Percent Control
PDPK1 = PDPK1 (Homo sapiens (Human), UniProt O15530); conditions: PDPK1, 10000 nM; read-out: Percent Control
PIK3CA(H1047L) = PIK3CA(H1047L) (Homo sapiens (Human), UniProt P42336, H1047L); conditions: 10000 nM, read-out: Percent Control
PIK3CB = PIK3CB (Homo sapiens (Human), UniProt P42338); conditions: 10000 nM, read-out: Percent Control
PKAC-alpha = PKAC-alpha (Homo sapiens (Human), UniProt P17612); conditions: 10000 nM, read-out: Percent Control
PLK1 = PLK1 (Homo sapiens (Human), UniProt P53350); conditions: PLK1, 10000 nM; read-out: Percent Control
PLK4 = PLK4 (Homo sapiens (Human), UniProt O00444); conditions: PLK4, 10000 nM; read-out: Percent Control
RET(M918T) = RET(M918T) (Homo sapiens (Human), UniProt P07949, M918T); conditions: 10000 nM, read-out: Percent Control
[4] = target: RPS6KA4(Kin.Dom.1-N-terminal) (Homo sapiens (Human), UniProt O75676); conditions: 10000 nM, read-out: Percent Control
[5] = target: RPS6KA4(Kin.Dom.2-C-terminal) (Homo sapiens (Human), UniProt O75676); conditions: 10000 nM, read-out: Percent Control
SNRK = SNRK (Homo sapiens (Human), UniProt Q9NRH2); conditions: 10000 nM, read-out: Percent Control
STK16 = STK16 (Homo sapiens (Human), UniProt O75716); conditions: STK16, 10000 nM; read-out: Percent Control
STK39 = STK39 (Homo sapiens (Human), UniProt Q9UEW8); conditions: STK39, 10000 nM; read-out: Percent Control
TNK1 = TNK1 (Homo sapiens (Human), UniProt Q13470); conditions: TNK1, 10000 nM; read-out: Percent Control
TTK = TTK (Homo sapiens (Human), UniProt P33981); conditions: 10000 nM, read-out: Percent Control
ULK1 = ULK1 (Homo sapiens (Human), UniProt O75385); conditions: ULK1, 10000 nM; read-out: Percent Control

Chain of CIT (O14578 whole entry): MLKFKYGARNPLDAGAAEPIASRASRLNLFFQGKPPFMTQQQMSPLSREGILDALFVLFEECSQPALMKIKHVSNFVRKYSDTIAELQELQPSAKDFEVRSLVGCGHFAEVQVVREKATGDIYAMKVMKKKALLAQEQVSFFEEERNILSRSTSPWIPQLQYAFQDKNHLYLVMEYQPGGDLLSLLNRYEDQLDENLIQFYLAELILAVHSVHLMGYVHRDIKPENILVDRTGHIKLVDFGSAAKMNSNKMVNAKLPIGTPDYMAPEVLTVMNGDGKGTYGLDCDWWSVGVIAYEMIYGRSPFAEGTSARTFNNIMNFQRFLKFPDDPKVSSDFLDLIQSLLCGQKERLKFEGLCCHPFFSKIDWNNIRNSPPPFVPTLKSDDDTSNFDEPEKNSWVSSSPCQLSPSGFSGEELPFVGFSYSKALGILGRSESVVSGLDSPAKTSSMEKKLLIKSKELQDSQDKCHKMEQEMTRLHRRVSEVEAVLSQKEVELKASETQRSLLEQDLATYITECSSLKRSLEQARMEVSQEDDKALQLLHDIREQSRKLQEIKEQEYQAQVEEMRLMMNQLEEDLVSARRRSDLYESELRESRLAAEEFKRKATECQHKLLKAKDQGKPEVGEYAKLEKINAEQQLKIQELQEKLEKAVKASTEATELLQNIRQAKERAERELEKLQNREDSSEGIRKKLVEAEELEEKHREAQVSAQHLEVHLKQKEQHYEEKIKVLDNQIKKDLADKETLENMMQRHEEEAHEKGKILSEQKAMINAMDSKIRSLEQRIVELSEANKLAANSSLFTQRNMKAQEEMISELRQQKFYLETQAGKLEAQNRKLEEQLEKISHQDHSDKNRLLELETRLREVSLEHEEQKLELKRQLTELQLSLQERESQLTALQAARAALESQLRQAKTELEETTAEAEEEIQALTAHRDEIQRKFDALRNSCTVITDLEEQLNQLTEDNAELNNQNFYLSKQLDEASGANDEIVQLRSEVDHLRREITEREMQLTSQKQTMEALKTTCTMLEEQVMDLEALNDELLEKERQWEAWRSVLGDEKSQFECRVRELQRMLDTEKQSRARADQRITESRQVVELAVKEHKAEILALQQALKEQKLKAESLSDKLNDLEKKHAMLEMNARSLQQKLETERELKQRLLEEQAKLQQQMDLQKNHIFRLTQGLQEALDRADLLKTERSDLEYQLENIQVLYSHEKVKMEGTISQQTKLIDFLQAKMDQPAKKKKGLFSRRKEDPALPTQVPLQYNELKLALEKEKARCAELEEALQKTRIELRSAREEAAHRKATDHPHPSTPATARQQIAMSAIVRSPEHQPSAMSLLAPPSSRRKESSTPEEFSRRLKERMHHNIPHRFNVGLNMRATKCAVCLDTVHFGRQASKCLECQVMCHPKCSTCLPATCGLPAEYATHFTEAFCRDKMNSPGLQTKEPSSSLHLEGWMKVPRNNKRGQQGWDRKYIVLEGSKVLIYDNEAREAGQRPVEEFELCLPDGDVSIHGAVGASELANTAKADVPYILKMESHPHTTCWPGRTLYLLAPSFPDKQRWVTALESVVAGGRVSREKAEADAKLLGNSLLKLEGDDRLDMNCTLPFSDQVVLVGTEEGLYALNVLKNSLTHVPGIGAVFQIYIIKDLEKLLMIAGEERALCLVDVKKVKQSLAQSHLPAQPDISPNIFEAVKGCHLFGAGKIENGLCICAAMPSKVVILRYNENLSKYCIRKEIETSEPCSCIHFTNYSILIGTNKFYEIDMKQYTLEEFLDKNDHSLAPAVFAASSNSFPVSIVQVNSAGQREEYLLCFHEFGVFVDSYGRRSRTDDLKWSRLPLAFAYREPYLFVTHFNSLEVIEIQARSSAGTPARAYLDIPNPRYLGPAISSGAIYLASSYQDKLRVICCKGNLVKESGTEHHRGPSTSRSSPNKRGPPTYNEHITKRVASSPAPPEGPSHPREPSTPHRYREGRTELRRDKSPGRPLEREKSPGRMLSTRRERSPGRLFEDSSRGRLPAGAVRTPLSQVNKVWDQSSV
Chain of MAP3K3 (Q99759 whole entry): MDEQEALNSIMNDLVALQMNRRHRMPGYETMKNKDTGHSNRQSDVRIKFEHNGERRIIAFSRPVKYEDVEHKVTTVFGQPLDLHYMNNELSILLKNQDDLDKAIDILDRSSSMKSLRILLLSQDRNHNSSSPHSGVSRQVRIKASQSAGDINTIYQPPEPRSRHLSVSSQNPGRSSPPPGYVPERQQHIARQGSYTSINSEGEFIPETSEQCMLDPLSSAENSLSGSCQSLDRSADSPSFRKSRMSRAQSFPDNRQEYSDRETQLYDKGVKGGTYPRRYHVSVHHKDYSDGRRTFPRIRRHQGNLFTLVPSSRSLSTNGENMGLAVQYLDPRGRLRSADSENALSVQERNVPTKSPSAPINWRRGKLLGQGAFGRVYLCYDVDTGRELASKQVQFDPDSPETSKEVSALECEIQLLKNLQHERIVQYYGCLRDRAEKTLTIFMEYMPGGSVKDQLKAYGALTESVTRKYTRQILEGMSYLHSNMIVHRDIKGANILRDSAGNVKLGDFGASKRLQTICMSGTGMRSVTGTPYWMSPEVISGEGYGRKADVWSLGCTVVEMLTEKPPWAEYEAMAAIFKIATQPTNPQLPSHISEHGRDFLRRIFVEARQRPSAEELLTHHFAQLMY
Chain of p38-gamma (P53778 whole entry): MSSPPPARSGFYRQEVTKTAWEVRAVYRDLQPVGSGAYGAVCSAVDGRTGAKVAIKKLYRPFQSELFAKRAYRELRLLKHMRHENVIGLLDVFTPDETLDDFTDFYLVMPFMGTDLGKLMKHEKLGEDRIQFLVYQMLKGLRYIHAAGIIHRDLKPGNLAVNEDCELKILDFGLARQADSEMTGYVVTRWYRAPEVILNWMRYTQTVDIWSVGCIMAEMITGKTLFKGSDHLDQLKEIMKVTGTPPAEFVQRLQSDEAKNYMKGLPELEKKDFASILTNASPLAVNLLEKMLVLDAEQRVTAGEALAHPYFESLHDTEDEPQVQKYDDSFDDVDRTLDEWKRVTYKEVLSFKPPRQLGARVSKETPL
Chain of ERK8 (Q8TD08 whole entry): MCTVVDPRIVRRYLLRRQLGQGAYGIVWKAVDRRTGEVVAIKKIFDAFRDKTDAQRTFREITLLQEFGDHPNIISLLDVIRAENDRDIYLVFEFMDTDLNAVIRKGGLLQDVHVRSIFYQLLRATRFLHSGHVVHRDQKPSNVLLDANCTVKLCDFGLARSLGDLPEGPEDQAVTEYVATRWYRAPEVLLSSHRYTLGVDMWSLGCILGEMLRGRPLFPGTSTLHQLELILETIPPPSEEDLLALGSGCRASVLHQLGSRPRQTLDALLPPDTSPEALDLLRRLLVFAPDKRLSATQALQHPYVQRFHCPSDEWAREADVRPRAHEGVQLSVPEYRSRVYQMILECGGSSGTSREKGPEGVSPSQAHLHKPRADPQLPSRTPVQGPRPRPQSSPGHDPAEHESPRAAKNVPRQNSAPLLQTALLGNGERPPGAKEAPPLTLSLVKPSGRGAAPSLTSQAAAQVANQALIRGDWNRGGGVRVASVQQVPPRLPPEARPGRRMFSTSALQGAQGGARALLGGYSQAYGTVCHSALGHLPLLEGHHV
Chain of RPS6KA4(Kin.Dom.1-N-terminal) (O75676 33-301): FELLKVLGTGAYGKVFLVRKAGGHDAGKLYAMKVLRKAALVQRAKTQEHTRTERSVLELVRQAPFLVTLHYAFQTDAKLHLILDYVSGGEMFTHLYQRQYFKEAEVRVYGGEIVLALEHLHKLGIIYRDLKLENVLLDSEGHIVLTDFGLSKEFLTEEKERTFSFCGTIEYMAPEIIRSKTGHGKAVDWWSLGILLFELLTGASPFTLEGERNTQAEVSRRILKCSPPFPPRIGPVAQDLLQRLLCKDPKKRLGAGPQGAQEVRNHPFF
Chain of FYN (P06241 whole entry): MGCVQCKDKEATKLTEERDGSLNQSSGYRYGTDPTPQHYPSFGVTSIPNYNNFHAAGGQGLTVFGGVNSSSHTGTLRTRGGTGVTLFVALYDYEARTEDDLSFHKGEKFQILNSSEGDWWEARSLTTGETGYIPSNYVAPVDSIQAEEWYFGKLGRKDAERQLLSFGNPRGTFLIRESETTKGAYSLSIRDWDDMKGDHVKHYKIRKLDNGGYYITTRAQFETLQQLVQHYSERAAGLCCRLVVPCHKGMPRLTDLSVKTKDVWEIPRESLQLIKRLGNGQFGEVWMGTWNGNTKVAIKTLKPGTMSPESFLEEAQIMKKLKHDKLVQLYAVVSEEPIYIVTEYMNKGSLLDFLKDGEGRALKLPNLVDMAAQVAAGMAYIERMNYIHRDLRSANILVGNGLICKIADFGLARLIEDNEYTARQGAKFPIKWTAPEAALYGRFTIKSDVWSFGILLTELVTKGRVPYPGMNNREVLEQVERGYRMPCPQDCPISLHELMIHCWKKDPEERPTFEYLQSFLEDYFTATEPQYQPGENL
Chain of JNK3 (P53779 whole entry): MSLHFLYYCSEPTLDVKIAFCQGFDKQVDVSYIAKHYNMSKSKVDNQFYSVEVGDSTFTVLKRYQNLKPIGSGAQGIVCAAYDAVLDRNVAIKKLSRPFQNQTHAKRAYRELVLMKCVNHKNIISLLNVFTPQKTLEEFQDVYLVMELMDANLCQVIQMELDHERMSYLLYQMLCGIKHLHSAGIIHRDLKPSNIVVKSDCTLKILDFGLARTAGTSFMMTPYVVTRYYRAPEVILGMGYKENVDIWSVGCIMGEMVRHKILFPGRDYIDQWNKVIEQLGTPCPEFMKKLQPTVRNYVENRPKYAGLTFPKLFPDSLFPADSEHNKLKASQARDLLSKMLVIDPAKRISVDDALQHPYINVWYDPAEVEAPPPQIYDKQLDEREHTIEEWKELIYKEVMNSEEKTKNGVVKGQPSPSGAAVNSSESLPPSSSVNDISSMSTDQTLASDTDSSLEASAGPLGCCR

SMILES | remaining binding at 10 µM [1] | remaining binding at 10 µM [2] | remaining binding at 10 µM (BRAF) | remaining binding at 10 µM (BRSK1) | remaining binding at 10 µM (CHEK2) | remaining binding at 10 µM (CIT) | remaining binding at 10 µM (DAPK2) | remaining binding at 10 µM (ERK8) | remaining binding at 10 µM (FGFR3) | remaining binding at 10 µM (FYN) | remaining binding at 10 µM [3] | remaining binding at 10 µM (JNK3) | remaining binding at 10 µM (LZK) | remaining binding at 10 µM (MAP3K15) | remaining binding at 10 µM (MAP3K3) | remaining binding at 10 µM (MAP4K3) | remaining binding at 10 µM (MAST1) | remaining binding at 10 µM (NEK7) | remaining binding at 10 µM (NIK) | remaining binding at 10 µM (p38-gamma) | other results
COc1cc(N2CCC(N3CCN(C)CC3)CC2)ccc1Nc1ncc2c(n1)N(C)c1sc(C)nc1C(=O)N2 [Compound 3, 6-((2-methoxy-4-(4-(4-methylpiperazin-1-yl)piperidin-1-yl)phenyl)amino)-2,4-dimethyl-4,9-dihydro-10H-pyrimido[5,4-b]thiazolo[5,4-e][1,4]diazepin-10-one] | 17% | 19% | 86% | 69% | 72% | 73% | 60% | 86% | 92% | 73% | 85% | 100% | 100% | 90% | 100% | 100% | 84% | 63% | 85% | 67% | remaining binding at 10 µM (PDPK1): 76%; remaining binding at 10 µM (PIK3CA(H1047L)): 66%; remaining binding at 10 µM (PIK3CB): 97%; remaining binding at 10 µM (PKAC-alpha): 72%; remaining binding at 10 µM (PLK1): 100%; remaining binding at 10 µM (PLK4): 81%; remaining binding at 10 µM (RET(M918T)): 87%; remaining binding at 10 µM [4]: 100%; remaining binding at 10 µM [5]: 100%; remaining binding at 10 µM (SNRK): 94%; remaining binding at 10 µM (STK16): 81%; remaining binding at 10 µM (STK39): 100%; remaining binding at 10 µM (TNK1): 53%; remaining binding at 10 µM (TTK): 51%; remaining binding at 10 µM (ULK1): 100%
COc1cc(N2CCC(N3CCN(C)CC3)CC2)ccc1Nc1ncc2c(n1)N(C)c1sc(C)nc1C(=O)N2C [Compound 5, 6-((2-methoxy-4-(4-(4-methylpiperazin-1-yl)piperidin-1-yl)phenyl)amino)-2,4,9-trimethyl-4,9-dihydro-10H-pyrimido[5,4-b]thiazolo[5,4-e][1,4]diazepin-10-one] | 100% | 100% | 95% | 100% | 100% | 98% | 83% | 100% | 98% | 93% | 89% | 97% | 100% | 84% | 100% | 100% | 100% | 100% | 93% | 95% | remaining binding at 10 µM (PDPK1): 96%; remaining binding at 10 µM (PIK3CA(H1047L)): 80%; remaining binding at 10 µM (PIK3CB): 87%; remaining binding at 10 µM (PKAC-alpha): 100%; remaining binding at 10 µM (PLK1): 0.7%; remaining binding at 10 µM (PLK4): 19%; remaining binding at 10 µM (RET(M918T)): 100%; remaining binding at 10 µM [4]: 100%; remaining binding at 10 µM [5]: 30%; remaining binding at 10 µM (SNRK): 100%; remaining binding at 10 µM (STK16): 100%; remaining binding at 10 µM (STK39): 77%; remaining binding at 10 µM (TNK1): 10%; remaining binding at 10 µM (TTK): 6.9%; remaining binding at 10 µM (ULK1): 98%
